According to patent publication US6737383B1, “Herbicidal oxadiazolidines” (priority 1999, dated 2004):

Assays:
bedstraw = test: Test B pre/postemergence bedstraw; assay type: in vivo, Galium aparine; details: Postemergence
Method in brief: (§1)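 Herbicidal effect was estimated by eye on a ten-point control scale after plants spent twelve to sixteen days in a greenhouse following soil or foliar treatment. Foliar sprays targeted plants at one to four leaves; all doses were formulated in a non-phytotoxic solvent with surfactant.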

blackgrass = test: Test B pre/postemergence blackgrass; assay type: in vivo, Alopecurus myosuroides
Method in brief: as §1

surinam grass = test: Test B pre/postemergence surinam grass; assay type: in vivo, Brachiaria decumbens
Method in brief: as §1

cocklebur = test: Test B pre/postemergence cocklebur; assay type: in vivo, Xanthium strumarium
Method in brief: as §1

corn = test: Test B pre/postemergence corn; assay type: in vivo, Zea mays
Method in brief: as §1

crabgrass = test: Test B pre/postemergence crabgrass; assay type: in vivo, Digitaria sanguinalis
Method in brief: as §1

giant foxtail = test: Test B pre/postemergence giant foxtail; assay type: in vivo, Setaria faberii
Method in brief: as §1

morningglory = test: Test B pre/postemergence morningglory; assay type: in vivo, Ipomoea hederacea
Method in brief: as §1

pigweed = test: Test B pre/postemergence pigweed; assay type: in vivo, Amaranthus retroflexus
Method in brief: as §1

rape = test: Test B pre/postemergence rape; assay type: in vivo, Brassica napus
Method in brief: as §1

soybean = test: Test B pre/postemergence soybean; assay type: in vivo, Glycine max
Method in brief: as §1

sugar beet = test: Test B pre/postemergence sugar beet; assay type: in vivo, Beta vulgaris
Method in brief: as §1

velvetleaf = test: Test B pre/postemergence velvetleaf; assay type: in vivo, Abutilon theophrasti
Method in brief: as §1

wheat = test: Test B pre/postemergence wheat; assay type: in vivo, Triticum aestivum
Method in brief: as §1

wild oat = test: Test B pre/postemergence wild oat; assay type: in vivo, Avena fatua
Method in brief: as §1

purple nutsedge = test: Test B pre/postemergence purple nutsedge; assay type: in vivo, Cyperus rotundus
Method in brief: as §1

rice = test: Test B flood test rice; assay type: in vivo, Oryza sativa
Method in brief: (§2)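 Each value is a visual injury score relative to controls, with 10 meaning complete control and 0 no effect. Evaluation took place twelve to sixteen days after the 2-leaf-stage plants were treated and kept in the greenhouse.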

smallflower flatsedge = test: Test B flood test smallflower flatsedge; assay type: in vivo, Cyperus difformis
Method in brief: as §2

duck salad = test: Test B flood test duck salad; assay type: in vivo, Heteranthera limosa
Method in brief: as §2

bamyardgrass = test: Test B flood test barnyardgrass; assay type: in vivo, Echinochloa crus-galli
Method in brief: as §2

[1] = Postemergence, Rate 62 g/ha, scale 0 to 10, 0 is no effect, 10 is complete control
[2] = Postemergence, Rate 125 g/ha, scale of 0 to 10 where 0 is no effect and 10 is complete control
[3] = Postemergence, Rate 250 g/ha, scale of 0 to 10, 0 is no effect, 10 is complete control
[4] = Postemergence, Rate 500 g/ha, scale of 0 to 10 where 0 is no effect and 10 is complete control
[5] = Preemergence, Rate 62 g/ha, scale 0 to 10 (0 no effect, 10 complete control)
[6] = Preemergence, Rate 125 g/ha, scale of 0 to 10 where 0 is no effect and 10 is complete control
[7] = Preemergence, Rate 500 g/ha, scale of 0 to 10 where 0 is no effect and 10 is complete control
[8] = Rate 62 g/ha, flood test species, Pre-emergence, visual evaluation after twelve to sixteen days
[9] = Rate 125 g/ha, under heading Pre-emergence, flood test species, visual evaluation after twelve to sixteen days
[10] = Rate 250 g/ha, Pre-emergence (flood test species), scale 0 to 10, 0 is no effect, 10 is complete control
[11] = Rate 500 g/ha, Pre-emergence section of Table B, 0 to 10 scale (0 no effect, 10 complete control)

C=C(C)Cn1c(=O)on(C(=O)N(c2ccccc2)C(C)C)c1=O [Compound 607]
Plant response rating, Bedstraw (bedstraw; Rate 62 g/ha, scale 0 to 10, 0 is no effect, 10 is complete control): 0 | Plant response rating, Bedstraw (bedstraw; Rate 125 g/ha, scale of 0 to 10 where 0 is no effect and 10 is complete control): 0 | Plant response rating, Blackgrass (blackgrass; [1]): 0 | Plant response rating, Blackgrass (blackgrass; [2]): 4 | Blackgrass plant response rating (blackgrass; [3]): 6 | Plant response rating, Blackgrass (blackgrass; [4]): 7 | Blackgrass plant response rating (blackgrass; [5]): 4 | Blackgrass plant response rating (blackgrass; [6]): 7 | Blackgrass plant response rating (0 to 10 scale) (blackgrass; Preemergence, Rate 250 g/ha): 8 | Blackgrass plant response rating (blackgrass; [7]): 9 | Plant response rating, B. signalgrass (surinam grass; [1]): 0 | Plant response rating, B. signalgrass (surinam grass; [2]): 0 | B. signalgrass plant response rating (surinam grass; [3]): 4 | Plant response rating, B. signalgrass (surinam grass; [4]): 7 | B. signalgrass plant response rating (surinam grass; [5]): 4 | B. signalgrass plant response rating (surinam grass; [6]): 7 | B. signalgrass plant response rating (0 to 10 scale, 0 is no effect, 10 is complete control) (surinam grass; Preemergence, Rate 250 g/ha): 8 | B. signalgrass plant response rating (surinam grass; [7]): 8 | Plant response rating, Cocklebur (cocklebur; [1]): 0 | Plant response rating, Cocklebur (cocklebur; [2]): 0 | Cocklebur plant response rating (cocklebur; [3]): 0 | Plant response rating, Cocklebur (cocklebur; [4]): 0 | Cocklebur plant response rating (cocklebur; [5]): 0 | Cocklebur plant response rating (cocklebur; [6]): 0 | Cocklebur plant response rating (0 to 10 scale) (cocklebur; Preemergence, Rate 250 g/ha): 0 | Plant response rating, Cocklebur (cocklebur; [7]): 0 | Plant response rating, Corn (corn; [1]): 0 | Plant response rating, Corn (corn; [2]): 0 | Corn plant response rating (corn; [3]): 0 | Plant response rating, Corn (corn; [4]): 2 | Corn plant response rating (corn; [5]): 0 | Corn plant response rating (corn; [6]): 0 | Corn plant response rating (0 to 10 scale) (corn; Preemergence, Rate 250 g/ha): 0 | Plant response rating, Corn (corn; [7]): 6 | Plant response rating, Crabgrass (crabgrass; [1]): 5 | Crabgrass plant response rating (crabgrass; [3]): 8 | Plant response rating, Crabgrass (crabgrass; [4]): 9 | Crabgrass plant response rating (crabgrass; [5]): 7 | Crabgrass plant response rating (crabgrass; [6]): 8 | Plant response rating, Crabgrass (crabgrass; [7]): 9 | Plant response rating, Giant foxtail (giant foxtail; [1]): 6 | Plant response rating, Giant foxtail (giant foxtail; [2]): 6 | Giant foxtail plant response rating (giant foxtail; [3]): 7 | Plant response rating, Giant foxtail (giant foxtail; [4]): 9 | Giant foxtail plant response rating (giant foxtail; [5]): 9 | Giant foxtail plant response rating (giant foxtail; [6]): 10 | Plant response rating, Giant foxtail (giant foxtail; [7]): 10 | Plant response rating, Morningglory (morningglory; [1]): 6 | Plant response rating, Morningglory (morningglory; [2]): 8 | Morningglory plant response rating (morningglory; [3]): 8 | Plant response rating, Morningglory (morningglory; [4]): 10 | Morningglory plant response rating (morningglory; [5]): 0 | Morningglory plant response rating (morningglory; [6]): 0 | Plant response rating, Morningglory (morningglory; [7]): 0 | Plant response rating, Redroot pigweed (pigweed; [1]): 0 | Plant response rating, Redroot pigweed (pigweed; [2]): 0 | Redroot pigweed plant response rating (pigweed; [3]): 0 | Plant response rating, Redroot pigweed (pigweed; [4]): 5 | Redroot pigweed plant response rating (pigweed; [5]): 4 | Redroot pigweed plant response rating (pigweed; [6]): 7 | Plant response rating, Redroot pigweed (pigweed; [7]): 10 | Plant response rating, Rape (rape; [1]): 0 | Plant response rating, Rape (rape; [2]): 0 | Rape plant response rating (rape; [3]): 0 | Plant response rating, Rape (rape; [4]): 0 | Rape plant response rating (rape; [5]): 0 | Rape plant response rating (rape; [6]): 6 | Plant response rating, Rape (rape; [7]): 7 | Plant response rating, Soybean (soybean; [1]): 3 | Plant response rating, Soybean (soybean; [2]): 4 | Soybean plant response rating (soybean; [3]): 6 | Soybean plant response rating (soybean; [5]): 0 | Soybean plant response rating (soybean; [6]): 0 | Plant response rating, Soybean (soybean; [7]): 4 | Plant response rating, Sugarbeets (sugar beet; [1]): 0 | Plant response rating, Sugarbeets (sugar beet; [2]): 0 | Sugarbeets plant response rating (sugar beet; [3]): 0 | Plant response rating, Sugarbeets (sugar beet; [4]): 0 | Sugarbeets plant response rating (sugar beet; [5]): 0 | Sugarbeets plant response rating (sugar beet; [6]): 0 | Plant response rating, Sugarbeets (sugar beet; [7]): 5 | Plant response rating, Velvetleaf (velvetleaf; [1]): 0 | Plant response rating, Velvetleaf (velvetleaf; [2]): 0 | Velvetleaf plant response rating (velvetleaf; [3]): 3 | Plant response rating, Velvetleaf (velvetleaf; [4]): 5 | Velvetleaf plant response rating (velvetleaf; [5]): 0 | Velvetleaf plant response rating (velvetleaf; [6]): 3 | Plant response rating, Velvetleaf (velvetleaf; [7]): 8 | Plant response rating, Wheat (wheat; [1]): 0 | Plant response rating, Wheat (wheat; [2]): 0 | Wheat plant response rating (wheat; [3]): 2 | Plant response rating, Wheat (wheat; [4]): 4 | Wheat plant response rating (wheat; [5]): 0 | Wheat plant response rating (wheat; [6]): 0 | Plant response rating, Wheat (wheat; [7]): 3 | Plant response rating, Wild oats (wild oat; [1]): 0 | Plant response rating, Wild oats (wild oat; [2]): 0 | Wild oats plant response rating (wild oat; [3]): 0 | Plant response rating, Wild oats (wild oat; [4]): 4 | Wild oats plant response rating (wild oat; [5]): 0 | Wild oats plant response rating (wild oat; [6]): 2 | Plant response rating, Wild oats (wild oat; [7]): 6 | Plant response rating, Nutsedge (purple nutsedge; [1]): 0 | Plant response rating, Nutsedge (purple nutsedge; [2]): 0 | Nutsedge plant response rating (purple nutsedge; [3]): 0 | Plant response rating, Nutsedge (purple nutsedge; [4]): 7 | Nutsedge plant response rating (purple nutsedge; [6]): 0 | Plant response rating, Nutsedge (purple nutsedge; [7]): 0 | Plant response rating, Rice (0 to 10 scale, 0 is no effect, 10 is complete control) (rice; [8]): 0 | Rice plant response rating (0 to 10 scale, 0 is no effect, 10 is complete control) (rice; [9]): 0 | Rice plant response rating (rice; [10]): 0 | Rice plant response rating (rice; [11]): 0 | Plant response rating, S. Flatsedge (0 to 10 scale, 0 is no effect, 10 is complete control) (smallflower flatsedge; [8]): 0 | S. Flatsedge plant response rating (0 to 10 scale, 0 is no effect, 10 is complete control) (smallflower flatsedge; [9]): 0 | S. Flatsedge plant response rating (smallflower flatsedge; [10]): 0 | S. Flatsedge plant response rating (smallflower flatsedge; [11]): 0 | Plant response rating, Ducksalad (0 to 10 scale, 0 is no effect, 10 is complete control) (duck salad; [8]): 0 | Ducksalad plant response rating (0 to 10 scale, 0 is no effect, 10 is complete control) (duck salad; [9]): 0 | Ducksalad plant response rating (duck salad; [10]): 0 | Ducksalad plant response rating (duck salad; [11]): 0 | Plant response rating, Barnyardgrass (0 to 10 scale, 0 is no effect, 10 is complete control) (bamyardgrass; [8]): 0 | Barnyardgrass plant response rating (0 to 10 scale, 0 is no effect, 10 is complete control) (bamyardgrass; [9]): 0 | Barnyardgrass plant response rating (bamyardgrass; [10]): 0 | Barnyardgrass plant response rating (bamyardgrass; [11]): 0
